# Test results taken from patent publication US11274083B2, “Substituted thiophenyl uracils, salts thereof and the use thereof as herbicidal agents” (Syngenta Crop Protection AG, priority 2017, dated 2022).
# Experiments:
# Format in all cases: in vivo
# [1] = test system: Matricaria inodora; assay: Herbicidal action pre-emergence, greenhouse pot test
# Source text: Seeds of mono- and dicotyledonous weeds and crop plants were laid out in plastic or organic plant pots and covered with soil. The compounds of the invention formulated in the form of wettable powders (WP) or as emulsion concentrates (EC) were then applied to the surface of the covering soil as an aqueous suspension or emulsion with addition of 0.5% additive at a water application rate equivalent to 600 L/ha. After the treatment, the pots were placed in a greenhouse and kept under good growth conditions for the test plants. After about 3 weeks, the efficacy of the preparations was scored visually as a percentage by comparison with untreated controls. For example, 100% efficacy=plants have died. 0% efficacy=like control plants. Tables B1 to B17 below show the efficacies of selected compounds of the general formula (I) […] aforementioned trial method.
# [2] = test system: Zea mays; assay: Crop compatibility post-emergence, greenhouse pot test; conditions: application rate 5 g/ha
# Description: (§1) Seeds of mono- and dicotyledonous weed plants and crop plants were laid out in sandy loam soil in plastic or wood-fiber pots, covered with soil and grown under controlled growth conditions in a greenhouse. 2 to 3 weeks after sowing, the trial plants were treated at the one-leaf stage. The compounds of the invention formulated in the form of wettable powders (WP) or as emulsion concentrates (EC) were then sprayed onto the green parts of the plant as an aqueous suspension or emulsion with addition of 0.5% additive at a water application rate equivalent to 600 L/ha. After the trial plants had stood for about 3 weeks in the greenhouse, under optimal growth conditions, the effect of the preparations was scored visually by comparison with untreated controls. For example, 100% efficacy=plants have died, 0% efficacy=like control plants.
# (§2) Crop plant compatibilities were also scored correspondingly.
# (§3) The effects observed are reported here on selected crop plants by comparison, with the untreated controls (values in %).
# [3] = test system: Triticum aestivum; assay: as above
# Description: as §1, §2, §3
# [4] = test system: Veronica persica; assay: Herbicidal action pre-emergence, greenhouse pot test
# Source text: (§4) Seeds of mono- and dicotyledonous weeds and crop plants were laid out in plastic or organic plant pots and covered with soil. The compounds of the invention formulated in the form of wettable powders (WP) or as emulsion concentrates (EC) were then applied to the surface of the covering soil as an aqueous suspension or emulsion with addition of 0.5% additive at a water application rate equivalent to 600 L/ha. After the treatment, the pots were placed in a greenhouse and kept under good growth conditions for the test plants. After about 3 weeks, the efficacy of the preparations was scored visually as a percentage by comparison with untreated controls. For example, 100% efficacy=plants have died. 0% efficacy=like control plants. Tables B1 to B17 below show the efficacies of selected compounds of the general formula (I) according to tables I.1 to I.50 on various harmful plants and an application rate corresponding to 320 g/ha or lower that were obtained by the aforementioned trial method.
# [5] = test system: Viola tricolor; assay: as above
# Source text: as §4
# [6] = test system: Polygonum convolvulus; assay: as above
# Source text: as §4
# [7] = test system: Stellaria media; assay: as above
# Source text: as §4
# [8] = test system: Echinochloa crus-galli; assay: as above; conditions: application rate 320 g/ha
# Source text: as §4
# [9] = test system: Amaranthus retroflexus; assay: as above
# Source text: as §4
# [10] = test system: Lolium rigidum; assay: as above
# Source text: as §4
# [11] = test system: Setaria viridis; assay: as above
# Source text: as §4
# [12] = test system: Pharbitis purpurea; assay: as above
# Source text: as §4
# [13] = test system: Hordeum murinum; assay: as above; conditions: application rate 320 g/ha
# Source text: as §4
# [14] = test system: Abutilon theophrasti; assay: as above
# Source text: as §4
# [15] = test system: Alopecurus myosuroides; assay: as above; conditions: application rate 320 g/ha
# Source text: as §4
# [16] = test system: Veronica persica; assay: Herbicidal action post-emergence, greenhouse pot test; conditions: application rate 80 g/ha
# Description: as §1, with “plants. Tables A1 to A16 below show the efficacies of selected compounds of the general formula (I) according to tables I.1 to I.50 on various harmful plants and an application rate corresponding to 80 g/ha or lower that were obtained by the aforementioned trial method.” for “plants.”
# [17] = test system: Viola tricolor; assay: as above
# Description: as §1, with “plants. Tables A1 to A16 below show the efficacies of selected compounds of the general formula (I) according to tables I.1 to I.50 on various harmful plants and an application rate corresponding to 80 g/ha or lower that were obtained by the aforementioned trial method.” for “plants.”
# [18] = test system: Polygonum convolvulus; assay: as above; conditions: application rate 80 g/ha
# Description: as §1, with “plants. Tables A1 to A16 below show the efficacies of selected compounds of the general formula (I) according to tables I.1 to I.50 on various harmful plants and an application rate corresponding to 80 g/ha or lower that were obtained by the aforementioned trial method.” for “plants.”
# [19] = test system: Stellaria media; assay: as above; conditions: application rate 80 g/ha
# Description: as §1, with “plants. Tables A1 to A16 below show the efficacies of selected compounds of the general formula (I) according to tables I.1 to I.50 on various harmful plants and an application rate corresponding to 80 g/ha or lower that were obtained by the aforementioned trial method.” for “plants.”
# [20] = test system: Echinochloa crus-galli; assay: as above; conditions: application rate 80 g/ha
# Description: as §1, with “plants. Tables A1 to A16 below show the efficacies of selected compounds of the general formula (I) according to tables I.1 to I.50 on various harmful plants and an application rate corresponding to 80 g/ha or lower that were obtained by the aforementioned trial method.” for “plants.”
# [21] = test system: Amaranthus retroflexus; assay: as above
# Description: as §1, with “plants. Tables A1 to A16 below show the efficacies of selected compounds of the general formula (I) according to tables I.1 to I.50 on various harmful plants and an application rate corresponding to 80 g/ha or lower that were obtained by the aforementioned trial method.” for “plants.”
# [22] = test system: Lolium rigidum; assay: as above; conditions: application rate 80 g/ha
# Description: as §1, with “plants. Tables A1 to A16 below show the efficacies of selected compounds of the general formula (I) according to tables I.1 to I.50 on various harmful plants and an application rate corresponding to 80 g/ha or lower that were obtained by the aforementioned trial method.” for “plants.”
# [23] = test system: Matricaria inodora; assay: as above; conditions: application rate 80 g/ha
# Description: as §1, with “plants. Tables A1 to A16 below show the efficacies of selected compounds of the general formula (I) according to tables I.1 to I.50 on various harmful plants and an application rate corresponding to 80 g/ha or lower that were obtained by the aforementioned trial method.” for “plants.”
# [24] = test system: Setaria viridis; assay: as above; conditions: application rate 80 g/ha
# Description: as §1, with “plants. Tables A1 to A16 below show the efficacies of selected compounds of the general formula (I) according to tables I.1 to I.50 on various harmful plants and an application rate corresponding to 80 g/ha or lower that were obtained by the aforementioned trial method.” for “plants.”
# [25] = test system: Pharbitis purpurea; assay: as above; conditions: application rate 80 g/ha
# Description: as §1, with “plants. Tables A1 to A16 below show the efficacies of selected compounds of the general formula (I) according to tables I.1 to I.50 on various harmful plants and an application rate corresponding to 80 g/ha or lower that were obtained by the aforementioned trial method.” for “plants.”
# [26] = test system: Abutilon theophrasti; assay: as above; conditions: application rate 80 g/ha
# Description: as §1, with “plants. Tables A1 to A16 below show the efficacies of selected compounds of the general formula (I) according to tables I.1 to I.50 on various harmful plants and an application rate corresponding to 80 g/ha or lower that were obtained by the aforementioned trial method.” for “plants.”
# [27] = test system: Avena fatua; assay: Herbicidal action pre-emergence, greenhouse pot test; conditions: application rate 320 g/ha
# Source text: as §4
# [28] = test system: Alopecurus myosuroides; assay: Herbicidal action post-emergence, greenhouse pot test; conditions: application rate 80 g/ha, scored visually after about 3 weeks vs untreated controls
# Description: as §1, with “plants. Tables A1 to A16 below show the efficacies of selected compounds of the general formula (I) according to tables I.1 to I.50 on various harmful plants and an application rate corresponding to 80 g/ha or lower that were obtained by the aforementioned trial method.” for “plants.”
structure (smiles),measurement,setting,value
CC(Sc1cc(-n2c(=O)cc(C(F)(F)F)n(C)c2=O)c(F)cc1Cl)C(=O)OCCC(=O)O (centres unmarked) [I.1-1],Matricaria inodora (Efficacy in %),[1]; application rate 320 g/ha,100%
same,Zea mays (Efficacy in %),[2],10%
same,Triticum aestivum (Efficacy in %),[3]; application rate 80 g/ha,20%
same,Veronica persica (Efficacy in %),[4]; application rate 320 g/ha,100%
same,Viola tricolor (Efficacy in %),[5]; application rate 320 g/ha,100%
same,Polygonum convolvulus (Efficacy in %),[6]; application rate 320 g/ha,100%
same,Stellaria media (Efficacy in %),[7]; application rate 320 g/ha,100%
same,Echinochloa crus-galli (Efficacy in %),[8],100%
same,Amaranthus retroflexus (Efficacy in %),[9]; application rate 20 g/ha,100%
same,Lolium rigidum (Efficacy in %),[10]; application rate 320 g/ha,100%
same,Setaria viridis (Efficacy in %),[11]; application rate 320 g/ha,100%
same,Pharbitis purpurea (Efficacy in %),[12]; application rate 320 g/ha,100%
same,Hordeum murinum (Efficacy in %),[13],90%
same,Abutilon theophrasti (Efficacy in %),[14]; application rate 320 g/ha,100%
same,Alopecurus myosuroides (Efficacy in %),[15],100%
same,Veronica persica (Efficacy in %),[16],100%
same,Viola tricolor (Efficacy in %),[17]; application rate 80 g/ha,100%
same,Polygonum convolvulus (Efficacy in %),[18],100%
same,Stellaria media (Efficacy in %),[19],100%
same,Echinochloa crus-galli (Efficacy in %),[20],100%
same,Amaranthus retroflexus (Efficacy in %),[21]; application rate 20 g/ha,100%
same,Lolium rigidum (Efficacy in %),[22],80%
same,Matricaria inodora (Efficacy in %),[23],100%
same,Setaria viridis (Efficacy in %),[24],100%
same,Pharbitis purpurea (Efficacy in %),[25],100%
same,Abutilon theophrasti (Efficacy in %),[26],100%
CCOC(=O)CC(C)OC(=O)C(C)Sc1cc(-n2c(=O)cc(C(F)(F)F)n(C)c2=O)c(F)cc1Cl (centres unmarked) [I.1-23],Matricaria inodora (Efficacy in %),[1]; application rate 800 g/ha,100%
same,Triticum aestivum (Efficacy in %),[3]; application rate 20 g/ha,20%
same,Veronica persica (Efficacy in %),[4]; application rate 80 g/ha,100%
same,Viola tricolor (Efficacy in %),[5]; application rate 80 g/ha,100%
same,Polygonum convolvulus (Efficacy in %),[6]; application rate 80 g/ha,100%
same,Avena fatua (Efficacy in %),[27],100%
same,Stellaria media (Efficacy in %),[7]; application rate 80 g/ha,100%
same,Echinochloa crus-galli (Efficacy in %),[8],100%
same,Amaranthus retroflexus (Efficacy in %),[9]; application rate 80 g/ha,100%
same,Lolium rigidum (Efficacy in %),[10]; application rate 80 g/ha,100%
same,Setaria viridis (Efficacy in %),[11]; application rate 80 g/ha,100%
same,Pharbitis purpurea (Efficacy in %),[12]; application rate 80 g/ha,100%
same,Hordeum murinum (Efficacy in %),[13],100%
same,Abutilon theophrasti (Efficacy in %),[14]; application rate 80 g/ha,100%
same,Alopecurus myosuroides (Efficacy in %),[15],100%
same,Veronica persica (Efficacy in %),[16],100%
same,Viola tricolor (Efficacy in %),[17]; application rate 20 g/ha,100%
same,Polygonum convolvulus (Efficacy in %),[18],100%
same,Stellaria media (Efficacy in %),[19],100%
same,Echinochloa crus-galli (Efficacy in %),[20],100%
same,Amaranthus retroflexus (Efficacy in %),[21]; application rate 80 g/ha,100%
same,Lolium rigidum (Efficacy in %),[22],90%
same,Matricaria inodora (Efficacy in %),[23],100%
same,Setaria viridis (Efficacy in %),[24],100%
same,Pharbitis purpurea (Efficacy in %),[25],100%
same,Abutilon theophrasti (Efficacy in %),[26],100%
same,Alopecurus myosuroides (Efficacy in %),[28],90%
